According to ChEMBL document CHEMBL1146232, “Discovery of N-{(1S,2S)-2-(3-cyanophenyl)- 3-[4-(2-[18F]fluoroethoxy)phenyl]-1-methylpropyl}- 2-methyl-2-[(5-methylpyridin-2-yl)oxy]propanamide, a cannabinoid-1 receptor positron emission tomography tracer suitable for clinical use” (J Med Chem, 2007):

Columns and labels:
[1] = Distribution coefficient, log D at pH 7.3; format: physicochemical; conditions: octanol/water
Cannabinoid receptor 1 = Cannabinoid receptor 1 (Homo sapiens, UniProt P21554); assay: Displacement of [3H]CP-55940 from human recombinant CB1R expressed in CHO cells; format: cell-based
[2] = Clearance in Sprague-Dawley rat at 1 mg/kg, iv; format: ADME, organism-based; design: dose 1 mg/kg, route intravenous; conditions: in vivo
Cannabinoid receptor 2 = Cannabinoid receptor 2 (Homo sapiens, UniProt P34972); assay: Agonist activity at human CB2R; format: functional
[3] = Ratio of drug level in brain to plasma in Sprague-Dawley rat at 1 mg/kg, iv after 15 mins; format: ADME, organism-based; design: dose 1 mg/kg, route intravenous; conditions: brain and plasma
[4] = Half life in Sprague-Dawley rat at 1 mg/kg, iv; format: ADME, organism-based; design: dose 1 mg/kg, route intravenous; conditions: in vivo

Cannabinoid receptor 1, sequence (P21554 whole entry): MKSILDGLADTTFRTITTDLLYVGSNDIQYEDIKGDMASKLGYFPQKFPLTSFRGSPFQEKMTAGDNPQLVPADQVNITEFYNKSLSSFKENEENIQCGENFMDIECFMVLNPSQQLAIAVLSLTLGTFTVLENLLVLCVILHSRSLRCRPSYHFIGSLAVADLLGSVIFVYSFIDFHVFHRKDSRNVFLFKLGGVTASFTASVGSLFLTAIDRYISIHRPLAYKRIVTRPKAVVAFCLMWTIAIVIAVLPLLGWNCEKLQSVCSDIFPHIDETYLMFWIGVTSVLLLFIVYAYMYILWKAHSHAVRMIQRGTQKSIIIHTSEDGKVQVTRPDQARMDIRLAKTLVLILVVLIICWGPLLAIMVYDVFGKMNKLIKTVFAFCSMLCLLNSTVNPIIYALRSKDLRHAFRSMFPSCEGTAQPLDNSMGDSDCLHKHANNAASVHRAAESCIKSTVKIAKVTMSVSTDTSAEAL
Cannabinoid receptor 2, sequence (P34972 whole entry): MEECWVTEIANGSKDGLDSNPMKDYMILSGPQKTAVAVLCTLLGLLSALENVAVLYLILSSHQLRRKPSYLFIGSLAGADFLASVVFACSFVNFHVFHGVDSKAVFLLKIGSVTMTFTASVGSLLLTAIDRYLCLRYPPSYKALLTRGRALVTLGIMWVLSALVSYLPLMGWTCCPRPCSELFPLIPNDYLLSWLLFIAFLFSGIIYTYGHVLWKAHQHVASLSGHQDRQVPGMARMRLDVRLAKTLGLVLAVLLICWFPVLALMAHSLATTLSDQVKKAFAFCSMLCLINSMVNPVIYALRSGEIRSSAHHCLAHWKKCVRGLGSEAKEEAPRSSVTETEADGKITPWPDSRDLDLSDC

SMILES	logD [1]	IC50 (Cannabinoid receptor 1)	clearance [2]	IC50 (Cannabinoid receptor 2)	Kp at 0.25 h [3]	half-life [4]
Cc1ccc(OC(C)(C)C(=O)N[C@@H](C)[C@@H](Cc2ccc(OCCF)cc2)c2cccc(C#N)c2)nc1	4	0.7 nM	81 mL/min/kg	44 nM	0.5	1.4 h
C[C@H](NC(=O)C(C)(C)Oc1cc(C(F)(F)F)ncn1)[C@@H](Cc1ccc(OCCF)cc1)c1cccc(C#N)c1	3.9	1.8 nM				
Cc1ccc(OC(C)(C)C(=O)N[C@@H](C)[C@@H](Cc2ccc(OCC[18F])cc2)c2cccc(C#N)c2)nc1	4	0.73 nM				
C[C@H](NC(=O)C(C)(C)Oc1ccc(C(F)(F)F)cn1)[C@@H](Cc1ccc(OCF)cc1)c1cc(F)cc(C#N)c1	4.7	2 nM				
C[C@H](NC(=O)C(C)(C)Oc1ccc(C#N)cn1)[C@@H](Cc1ccc(OCCF)cc1)c1cccc(C#N)c1	3.3	1.8 nM				
C[C@H](NC(=O)C(C)(C)Oc1ccc(C(F)(F)F)cn1)[C@@H](Cc1ccc(Cl)cc1)c1cccc(C#N)c1 [TARANABANT]	5.2					

Continued by falling IC50 (Cannabinoid receptor 1), values first:

logD [1]	IC50 (Cannabinoid receptor 1)	SMILES	clearance [2]	IC50 (Cannabinoid receptor 2)	Kp at 0.25 h [3]	half-life [4]
3.7	1.3 nM	C[C@H](NC(=O)C(C)(C)Oc1ccccn1)[C@@H](Cc1ccc(OCCF)cc1)c1cccc(C#N)c1				
4.4	0.9 nM	C[C@H](NC(=O)C(C)(C)Oc1ccc(C(F)(F)F)cn1)[C@@H](Cc1ccc(OCCF)cc1)c1cccc(C#N)c1				
4.8	0.9 nM	COc1ccc(C[C@@H](c2cc(F)cc(C#N)c2)[C@H](C)NC(=O)C(C)(C)Oc2ccc(C(F)(F)F)cn2)cc1				
4.6	0.9 nM	C[C@H](NC(=O)C(C)(C)Oc1ccc(C(F)(F)F)cn1)[C@@H](Cc1ccc(OCCF)cc1)c1cc(F)cc(C#N)c1				
4.2	0.8 nM	C[C@H](NC(=O)C(C)(C)Oc1ccc(Cl)cn1)[C@@H](Cc1ccc(OCCF)cc1)c1cccc(C#N)c1				
4.6	0.77 nM	C[C@H](NC(=O)C(C)(C)Oc1cc(C(F)(F)F)ccn1)[C@@H](Cc1ccc(OCCF)cc1)c1cccc(C#N)c1				
4.1	0.47 nM	Cc1ccnc(OC(C)(C)C(=O)N[C@@H](C)[C@@H](Cc2ccc(OCCF)cc2)c2cccc(C#N)c2)c1				
